Assay results published in US8377876B2, “Pediatric amino acid solution for parenteral nutrition” (Fresenius Kabi Deutschland GmbH, priority 2006, dated 2013).
Peptide text beside a SMILES is read from it.

Assay: Thermal sterilization of 200 g/l alanyl-glutamine solution; degradation products determined after sterilization
Type: physicochemical
Details: sterilization at 121° C., 124° C. and 127° C., pH 5 to 6, constant F0 12-12.5
Protocol: The sterilization temperature is in this connection preferably ≧124° C. and particularly preferably ≧127° C. The pH is preferably between 5 and 6.5. It is possible to reduce the holding times for the thermal sterilization on use of higher temperatures. Under the preferred conditions, distinctly smaller amounts of degradation products are found in the sterilized product (example 3).
A solution of 200 g/l alanyl-glutamine was sterilized at temperatures of 121° C., 124° C. and 127° C. The pH was varied between pH 5, pH 5.5 and pH 6. […] The F0 value describes the sterilization efficiency and corresponds to the holding time at 121.11° C. For sterilization at higher temperatures, the holding times were reduced to maintain a constant F0 value. After the sterilization, the amounts of the degradation products of the dipeptide alanyl-glutamine, cyclo-alanyl-glutamine and L-pyro-alanyl-glutamine were determined. Lower values for these degradation products are a direct indication of the stability of the dipeptide during the sterilization.

For `C[C@H](N)C(=O)N[C@@H](CCC(N)=O)C(=O)O` [alanyl-glutamine, L-Alanyl-L-glutamine] (H-Ala-Gln-OH), the “values for the degradation products (stability of the dipeptide during sterilization)” value was “fell at higher temperature”.
